According to patent US20230167109A1, “Aminopiperidine Amides, Derivatives, Compositions, and Uses Related to CXCR4 Modulation” (Emory University, priority 2020, published 2023):

Legend:
MDA-MB-231 cells = assay: In vitro Matrigel invasion assay (chemotaxis towards CXCL12); assay type: cell-based; settings: Homo sapiens, compound at 100 nM, 200 ng/ml CXCL12 as chemoattractant, 22 h
Description: (§1) EC (effective concentration) was calculated as the concentration at which the compound blocks >50% of CXCR4-targeted peptidomimetic conjugate (rhodamine Red X-TN14003). The inhibition % against the chemoattract, CXCL12 was determined by Matrigel invasion assay using 100 nM of compounds.
(§2) After computer evaluation of chemical libraries, seven compounds were tested by in vitro assays. The first binding assay quantified the affinity of compounds to the receptor by measuring the fluorescence of CXCR4-targeted peptidomimetic conjugate (rhodamine Red X-TN14003) after treating CXCR4-positive with each compound, which presents a lower fluorescent intensity for the compound with higher affinity. […] As a secondary orthogonal functional assay, Matrigel invasion assays were performed which measures the inhibitory efficacies of compounds against the chemotaxis between CXCR4-positive cells and the chemokine, CXCL12.
Matrigel invasion chambers were used for invasion assays. MDA-MB-231 cells were cultured on a layer of Matrigel in the upper chamber with compounds at 100 nM, while 200 ng/ml of CXCL12 was added in the lower chamber as a chemoattractant. […] Invading cells at the bottom of the Matrigel were fixed in methanol and stained with H&E. The percentage of invading cells was determined by counting the H&E-stained cells.

[1] = system: CXCR4-expressing infiltrating cells; assay: Immunohistochemistry of paw tissue with anti-CXCR4 antibody; assay type: in vivo; settings: paw tissue of Z7R-treated mouse vs inflamed tissue
Description: The avidin-biotin complex method was used to detect the proteins CXCR4 with anti-CXCR4 antibody (R&D System) at dilution 1:500. Formalin-fixed and paraffin-embedded tissues were deparaffinized and subsequently microwaved in 10 mM of sodium citrate buffer (pH 6.0) to retrieve antigens. After pre-incubation with hydrogen peroxide, avidin/biotin blocking kit (Invitrogen Co, CA), and horse serum (Vector Laboratories), the primary antibodies were applied overnight at 4° C. temperature. After incubation with the secondary antibody (rabbit anti-mouse biotinylated; Invitrogen Co, CA), the avidin-biotin complex was added and the enzyme activity was visualized with diaminobenzidine (ABC kit, Vector laboratories). Counterstaining was performed with hematoxylin.

[2] = system: carrageenan-induced paw edema; assay: In vivo anti-inflammation study, carrageenan-induced mouse paw edema model; settings: 10 mg/kg i.p., once a day; mice sacrificed 74 h after carrageenan; n=5
Description: Acute paw inflammation was induced by subcutaneous injection of 50 μL of λ-carrageenan in left hind paw. The mice in the treatment group were all administered Z7R at 10 mg/kg i.p., while control animals received corresponding i.p. injection of vehicle. Acute inflammation was induced by subcutaneous injection of […], of λ-carrageenan (1% w/v in saline) into the left hind paws of male nude mice (6 weeks, 20 g, Jackson Laboratory, Strain JAZ 007850 J:NU); the other hind paw was used as the non-inflammation control. The compounds were administered intraperitoneally (i.p. injection), 30 min after carrageenan challenge with the dose of 10 mg/kg using the formulation of 10% DMSO and 40% (2-hydroxypropyl)-β-cyclodextrin (CD) in PBS, and then once a day following the initial dose. The mice were sacrificed 74 h after inflammation was induced and 2 h after the last injection of the compounds. The hind paws of the mice were photographed, the thicknesses of the paws were measured by a caliper, and the weights of the paws were measured by a balance after transecting at the level of the malleoli. To quantify the edema, the measured values of the untreated group were subtracted from the treated group. The inflammation suppression percentage was calculated by comparing the compound-treated groups to the control group (n=5). Fixed paw tissue was sliced and stained with H&E for histology study.

CXCR4 = biological target: T1, CXCR4 (Homo sapiens, UniProt P61073); assay: In vitro binding assay: blocking of CXCR4-targeted TN14003 conjugate on MDA-MB-231 cells
T1 construct: endogenous in cells; host or cells: MDA-MB-231
Description: as §1, §2
MDA-MB-231 cells were cultured in an eight-well slide chamber for two days. The cells were pre-incubated with the compounds for 15 min, and then fixed with 4% formaldehyde. […] Pictures were analyzed quantitatively with ImageJ. EC (effective concentration) is determined for the concentration at with the compound blocks >50% of CXCR4-targeted TN14003 conjugate using 1, 10, 100, and 1000 nM of compounds. […]

T1 sequence (P61073 whole entry): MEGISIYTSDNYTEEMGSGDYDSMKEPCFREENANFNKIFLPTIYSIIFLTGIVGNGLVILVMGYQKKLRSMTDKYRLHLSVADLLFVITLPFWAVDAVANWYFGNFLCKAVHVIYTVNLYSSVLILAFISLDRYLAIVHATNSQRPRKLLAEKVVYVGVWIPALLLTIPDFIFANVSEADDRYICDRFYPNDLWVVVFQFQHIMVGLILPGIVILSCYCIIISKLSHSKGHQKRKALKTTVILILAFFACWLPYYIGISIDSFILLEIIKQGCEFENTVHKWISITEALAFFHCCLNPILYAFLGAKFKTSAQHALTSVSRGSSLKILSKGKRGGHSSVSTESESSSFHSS

| IC50 (CXCR4; fitted with GraphPad Prism 5, read-out: affinity IC50) | EC50 (CXCR4; compounds tested at 1, 10, 100 and 1000 nM, read-out: binding affinity (EC, effective concentration: concentration at which the compound blocks more than 50% of rhodamine Red X-TN14003)) | SMILES | inhibition at 0.1 µM (MDA-MB-231 cells) | CXCR4-expressing infiltrating cells in carrageenan-induced inflammatory tissue [1] | anti-inflammatory activity: reduction of edema (paw) weight vs untreated mice [2] |
| --- | --- | --- | --- | --- | --- |
| 1.25 nM | – | N=C(N)NCCCC(N)C(=O)NC1CCN(C(=O)CCn2ccc3ccncc32)CC1 (stereo not drawn) [Z7R, N-(1-(3-(pyrrolo[2,3-c]pyridin-1-yl)propanoyl)piperidin-4-yl)-2-amino-5-guanidinopentanamide] | 78.5% | reduced presence of CXCR4s | 50% |
| – | 100 nM | NC(C(=O)NC1CCN(C(=O)CCn2ccc3ccncc32)CC1)c1ccccc1 (stereo not drawn) [ZINC 72372983, N-(1-(3-(pyrrolo[2,3-c]pyridin-1-yl)propanoyl)piperidin-4-yl)-2-amino-2-phenylacetamide] | 69% | – | – |
